Assay results published in patent publication US4217274A, “Methoxyethoxymethyl esters of penicillins” (Bristol-Myers Company, priority 1978, dated 1980).
Converted amounts (≈) assume the structure as drawn. Where two headings read alike, the source gives them in different places.

Legend:
Ps. aeruginosa = assay: MIC, antibiotic dilution technique (agar); type: cell-based; details: Pseudomonas aeruginosa, Table 2, Ps. aeruginosa
Description: (§1) Bacteria. The organisms, preponderantly of recent clinical origin, were obtained from numerous sources of broad geographical distribution. Obligate anaerobes were maintained in Egg Meat Medium (Difco); Mycobacterium was stored on Lowenstein Medium (Jensen Modification; Difco). The techniques of storing all other organisms have been described previously [Leitner et al., BL-S640, A Cephalosporin with a Broad Spectrum of Antibacterial Activity: Properties in vitro, Antimicrob. Agents Chemother., 7, 298-305 (1975)].
(§2) Antibiotic spectrum. The growth-inhibitory activity of the compounds was determined by the antibiotic dilution technique. Procedures were as follows:
(§3) Aerobic organisms (excluding Mycobacterium). Except for Haemophilus and Neisseria, the assay was performed in Mueller-Hinton Medium (Difco). For fastidious organisms, i.e., Streptococcus, Listeria, Pasteurella, Bordetella and Vibrio, the medium was supplemented with 4% defibrinated sheep blood. The antibiotic susceptibility of Haemophilus and Neisseria was determined in GC Medium Base (BBL) supplemented with 1% Hemoglobin (BBL) and 1% Isovitalex (BBL).
(§4) Overnight broth cultures of an exponentially growing culture (Neisseria) served as the source of inoculum. A volume of approximately 0.003 ml. of the undiluted or diluted culture was applied to the surface of the antibiotic-containing agar plates with the inoculator of Steers et al., An Inocula Replicating Apparatus for Routine Testing of Bacterial Susceptibility to Antibiotics, Antibiot. Chemother., 9, 307-311, (1959). Cultures of Neisseria, Streptococcus pneumoniae, S. viridans and S. pyogenes were used without dilution; those of all other organisms were diluted 100-fold. The inoculum contained about 10^3 viable cells for Neisseria, 10^5 for S. pneumoniae and S. pyogenes, 10^6 for S. viridans and 10^4 for all other species.

Pr. rettgeri = assay: MIC, antibiotic dilution technique (agar); type: cell-based; details: Providencia rettgeri; Table 2, Pr. rettgeri
Description: as §1, §2, §3, §4

S. aureus Meth-Res. = assay: MIC, antibiotic dilution technique (agar); type: cell-based; details: Staphylococcus aureus; Table 2, S. aureus Meth-Res.
Description: as §1, §2, §3, §4

Str. faecalis = assay: MIC, antibiotic dilution technique (agar); type: cell-based; details: Enterococcus faecalis; Table 2, Str. faecalis
Description: as §1, §2, §3, §4

Pr. morganii = assay: MIC, antibiotic dilution technique (agar); type: cell-based; details: Morganella morganii
Description: as §1, §2, §3, §4

K. pneumoniae = assay: MIC, antibiotic dilution technique (agar); type: cell-based; details: Klebsiella pneumoniae, Table 2, K. pneumoniae
Description: as §1, §2, §3, §4

Pr. vulgaris = assay: MIC, antibiotic dilution technique (agar); type: cell-based; details: Proteus vulgaris; Table 2, Pr. vulgaris
Description: as §1, §2, §3, §4

Pr. mirabilis = assay: MIC, antibiotic dilution technique (agar); type: cell-based; details: Proteus mirabilis; Table 2, Pr. mirabilis
Description: as §1, §2, §3, §4

S. aureus = assay: MIC, antibiotic dilution technique (agar); type: cell-based; details: Staphylococcus aureus
Description: as §1, §2, §3, §4

Ser. marcescens = assay: MIC, antibiotic dilution technique (agar); type: cell-based; details: Serratia marcescens; Table 2, Ser. marcescens
Description: as §1, §2, §3, §4

Ent. cloacae = assay: MIC, antibiotic dilution technique (agar); type: cell-based; details: Enterobacter cloacae
Description: as §1, §2, §3, §4

S. aureus Pen-Res. = assay: MIC, antibiotic dilution technique (agar); type: cell-based; details: Staphylococcus aureus
Description: as §1, §2, §3, §4

E. Coli = assay: MIC, antibiotic dilution technique (agar); type: cell-based; details: Escherichia coli, Table 2, E. coli
Description: as §1, §2, §3, §4

Str. pneumoniae = assay: MIC, antibiotic dilution technique (agar); type: cell-based; details: Streptococcus pneumoniae; Table 2, Str. pneumoniae
Description: as §1, §2, §3, §4

Str. pyogenes = assay: MIC, antibiotic dilution technique (agar); type: cell-based, S. pyogenes; details: Streptococcus pyogenes; Table 2, Str. pyogenes
Description: as §1, §2, §3, §4

[1] = Mouse blood levels after oral administration (disc diffusion bioassay, Bacillus subtilis); details: in vivo, 100 mg/kg

CC1(C)S[C@@H]2[C@H](NC(=O)[C@H](N)c3ccc(O)cc3)C(=O)N2[C@H]1C(=O)O [Amoxicillin, amoxicillin]
MIC (Ps. aeruginosa; first line): 125 µg/mL (≈ 342 µM) | MIC (Ps. aeruginosa; second line): > 125 µg/mL | MIC (Pr. rettgeri): 16 µg/mL (≈ 43.8 µM) | MIC (S. aureus Meth-Res.): 32 µg/mL (≈ 87.6 µM) | MIC (Str. faecalis): 0.06 µg/mL (≈ 0.164 µM) | MIC (Pr. morganii): 125 µg/mL (≈ 342 µM) | MIC (K. pneumoniae; first line): 125 µg/mL (≈ 342 µM) | MIC (K. pneumoniae; second line): > 125 µg/mL | MIC (Pr. vulgaris): 0.06 µg/mL (≈ 0.164 µM) | MIC (Pr. mirabilis): 0.06 µg/mL (≈ 0.164 µM) | MIC (S. aureus; Table 2, S. aureus): 0.03 µg/mL (≈ 0.0821 µM) | MIC (S. aureus; Table 2, S. aureus + 50% serum): 0.06 µg/mL | MIC (Ser. marcescens): 32 µg/mL (≈ 87.6 µM) | MIC (Ent. cloacae): 125 µg/mL (≈ 342 µM) | MIC (Ent. cloacae; Table 2, Ent. cloacae, first line, read-out: MIC): 63 µg/mL (≈ 172 µM) | MIC (S. aureus Pen-Res.): > 125 µg/mL | MIC (E. Coli; first line): 0.5 µg/mL (≈ 1.37 µM) | MIC (E. Coli; second line): > 125 µg/mL | MIC (Str. pneumoniae): 0.004 µg/mL (≈ 0.0109 µM) | MIC (Str. pyogenes): 0.004 µg/mL (≈ 0.0109 µM) | concentration at 0.25 h [1]: 9500 ng/mL | concentration at 0.5 h [1]: 16900 ng/mL | concentration at 1 h [1]: 14200 ng/mL | concentration at 1.5 h [1]: 8700 ng/mL | concentration at 2 h [1]: 6300 ng/mL | concentration at 3 h [1]: 3100 ng/mL
